{
  "source": "patent US20260256792A1",
  "about": "“TREATMENT OF CHRONIC SPONTANEOUS URTICARIA BY ADMINISTERING (R)-2-[3-[4-AMINO-3-(2-FLUORO-4-PHENOXY-PHENYL)PYRAZOLO[3,4-D]PYRIMIDIN-1-YL]PIPERIDINE-1-CARBONYL]-4-METHYL-4-[4-(OXETAN-3-YL)PIPERAZIN-1-YL]PENT-2-ENENITRILE” (priority 2023, published 2026)",
  "system": "moderate-to-severe chronic spontaneous urticaria (CSU)",
  "test": "Phase 2 CSU study: urticaria activity score over 7 days (UAS7)",
  "assay_type": "in vivo, human",
  "conditions": "Omalizumab-naïve, 400 mg QPM",
  "excerpt": "The study comprises a 12 week, randomized, double-blind, placebo-controlled, multi-center, dose-ranging efficacy and safety phase, followed by a 40 week open label extension (OLE) phase (see FIG. 1). The study consists of three phases and an optional OLE phase. […] Clinically, CSU is characterized by the spontaneous and recurrent appearance of pruritic hives. The proposed primary endpoints were the UAS7 at Week 12 in EU and EU reference countries and the ISS7 in the US. Regardless of where a participant was from, all assessments were the same. The UAS7 score is a composite score containing both the HSS7 and the ISS7. This allowed a global assessment of the two key components of urticaria: hives and itch. […] The UAS is a validated PRO measure. […] The daily UAS scores range from 0 to 6 point/day. […] Patients were to complete the UAS using the e-diary. […] The following secondary endpoints were to be analyzed using the same approach as for the primary endpoint: • Change from baseline in UAS7 at Week 4 • Change from baseline in UAS7 at Week 12 (for US and US reference countries) • Change from baseline in ISS7 at Week 12 (except US and US reference countries) • Change from baseline in HSS7 at Week 12 The following responder secondary endpoints were to be analyzed using the Cochran-Mantel-Haenszel test adjusted by region: • Proportion of participants with UAS7<6 at Week 12 • Proportion of participants with UAS7=0 at Week 12 Participants who received selected prohibited medications and/or rescue medications were to be considered as non-responders for time points after the medication usage. For other participants, all available data including those collected during the off-treatment period were to be used to determine the responder/non-responder status. Missing data were to be considered as non-responders.",
  "data": [
    {"smiles": "CC(C)(C=C(C#N)C(=O)N1CCC[C@@H](n2nc(-c3ccc(Oc4ccccc4)cc3F)c3c(N)ncnc32)C1)N1CCN(C2COC2)CC1", "note": "[rilzabrutinib, (R)-2-[3-[4-amino-3-(2-fluoro-4-phenoxy-phenyl)pyrazolo[3,4-d]pyrimidin-1-yl]piperidine-1-carbonyl]-4-methyl-4-[4-(oxetan-3-yl)piperazin-1-yl]pent-2-enenitrile]", "values": [
      {"measurement": "Non-responder n (%), UAS7 ≤6", "setting": "Week 1", "value": "35 (94.6) n (%)"},
      {"measurement": "OR for rilzabrutinib vs. placebo, UAS7 = 0", "setting": "Week 1", "value": "0.000 (NE,"},
      {"measurement": "RRD (%) for rilzabrutinib vs. placebo, UAS7 = 0", "setting": "Week 1", "value": "−2.9", "unit": "%"},
      {"measurement": "RRD (%) for rilzabrutinib vs. placebo, UAS7 ≤6", "setting": "Week 1", "value": "−0.0", "unit": "%"},
      {"measurement": "Responder n (%), UAS7 = 0", "setting": "Week 1", "value": "0 n (%)"},
      {"measurement": "Responder n (%), UAS7 ≤6", "setting": "Week 1", "value": "2 (5.4) n (%)"},
      {"measurement": "Imputed non-responder n (%), UAS7 = 0", "setting": "Week 2", "value": "0 n (%)"},
      {"measurement": "Imputed non-responder n (%), UAS7 ≤6", "setting": "Week 2", "value": "0 n (%)"},
      {"measurement": "Non-responder n (%), UAS7 = 0", "setting": "Week 2", "value": "37 (100) n (%)"},
      {"measurement": "Non-responder n (%), UAS7 ≤6", "setting": "Week 2", "value": "36 (97.3) n (%)"},
      {"measurement": "OR for rilzabrutinib vs. placebo, UAS7 = 0", "setting": "Week 2", "value": "0.000 (NE,"},
      {"measurement": "OR for rilzabrutinib vs. placebo, UAS7 ≤6", "setting": "Week 2", "value": 0.489},
      {"measurement": "RRD (%) for rilzabrutinib vs. placebo, UAS7 = 0", "setting": "Week 2", "value": "−2.9", "unit": "%"},
      {"measurement": "RRD (%) for rilzabrutinib vs. placebo, UAS7 ≤6", "setting": "Week 2", "value": "−2.7", "unit": "%"},
      {"measurement": "Responder n (%), UAS7 = 0", "setting": "Week 2", "value": "0 n (%)"},
      {"measurement": "Responder n (%), UAS7 ≤6", "setting": "Week 2", "value": "1 (2.7) n (%)"},
      {"measurement": "Imputed non-responder n (%), UAS7 = 0", "setting": "Week 3", "value": "0 n (%)"},
      {"measurement": "Imputed non-responder n (%), UAS7 ≤6", "setting": "Week 3", "value": "0 n (%)"},
      {"measurement": "Non-responder n (%), UAS7 = 0", "setting": "Week 3", "value": "37 (100) n (%)"},
      {"measurement": "Non-responder n (%), UAS7 ≤6", "setting": "Week 3", "value": "35 (94.6) n (%)"},
      {"measurement": "OR for rilzabrutinib vs. placebo, UAS7 = 0", "setting": "Week 3", "value": "0.000 (NE,"},
      {"measurement": "OR for rilzabrutinib vs. placebo, UAS7 ≤6", "setting": "Week 3", "value": 0.666},
      {"measurement": "RRD (%) for rilzabrutinib vs. placebo, UAS7 = 0", "setting": "Week 3", "value": "−2.9", "unit": "%"},
      {"measurement": "RRD (%) for rilzabrutinib vs. placebo, UAS7 ≤6", "setting": "Week 3", "value": "−2.5", "unit": "%"},
      {"measurement": "Responder n (%), UAS7 = 0", "setting": "Week 3", "value": "0 n (%)"},
      {"measurement": "Responder n (%), UAS7 ≤6", "setting": "Week 3", "value": "2 (5.4) n (%)"},
      {"measurement": "Imputed non-responder n (%), UAS7 = 0", "setting": "Week 4", "value": "1 (2.7) n (%)"},
      {"measurement": "Imputed non-responder n (%), UAS7 ≤6", "setting": "Week 4", "value": "1 (2.7) n (%)"},
      {"measurement": "Non-responder n (%), UAS7 = 0", "setting": "Week 4", "value": "37 (100) n (%)"},
      {"measurement": "Non-responder n (%), UAS7 ≤6", "setting": "Week 4", "value": "35 (94.6) n (%)"},
      {"measurement": "OR for rilzabrutinib vs. placebo, UAS7 = 0", "setting": "Week 4", "value": "0.000 (NE,"},
      {"measurement": "OR for rilzabrutinib vs. placebo, UAS7 ≤6", "setting": "Week 4", "value": 0.486},
      {"measurement": "RRD (%) for rilzabrutinib vs. placebo, UAS7 = 0", "setting": "Week 4", "value": "−5.3", "unit": "%"},
      {"measurement": "RRD (%) for rilzabrutinib vs. placebo, UAS7 ≤6", "setting": "Week 4", "value": "−5.0", "unit": "%"},
      {"measurement": "Responder n (%), UAS7 = 0", "setting": "Week 4", "value": "0 n (%)"},
      {"measurement": "Responder n (%), UAS7 ≤6", "setting": "Week 4", "value": "2 (5.4) n (%)"},
      {"measurement": "Imputed non-responder n (%), UAS7 = 0", "setting": "Week 5", "value": "2 (5.4) n (%)"},
      {"measurement": "Imputed non-responder n (%), UAS7 ≤6", "setting": "Week 5", "value": "2 (5.4) n (%)"},
      {"measurement": "Non-responder n (%), UAS7 = 0", "setting": "Week 5", "value": "36 (97.3) n (%)"},
      {"measurement": "Non-responder n (%), UAS7 ≤6", "setting": "Week 5", "value": "35 (94.6) n (%)"},
      {"measurement": "OR for rilzabrutinib vs. placebo, UAS7 = 0", "setting": "Week 5", "value": 0.923},
      {"measurement": "OR for rilzabrutinib vs. placebo, UAS7 ≤6", "setting": "Week 5", "value": 0.986},
      {"measurement": "RRD (%) for rilzabrutinib vs. placebo, UAS7 = 0", "setting": "Week 5", "value": "−0.2", "unit": "%"},
      {"measurement": "RRD (%) for rilzabrutinib vs. placebo, UAS7 ≤6", "setting": "Week 5", "value": "−0.1", "unit": "%"},
      {"measurement": "Responder n (%), UAS7 = 0", "setting": "Week 5", "value": "1 (2.7) n (%)"},
      {"measurement": "Responder n (%), UAS7 ≤6", "setting": "Week 5", "value": "2 (5.4) n (%)"},
      {"measurement": "Imputed non-responder n (%), UAS7 = 0", "setting": "Week 6", "value": "4 (10.8) n (%)"},
      {"measurement": "Imputed non-responder n (%), UAS7 ≤6", "setting": "Week 6", "value": "4 (10.8) n (%)"},
      {"measurement": "Non-responder n (%), UAS7 = 0", "setting": "Week 6", "value": "36 (97.3) n (%)"},
      {"measurement": "Non-responder n (%), UAS7 ≤6", "setting": "Week 6", "value": "34 (91.9) n (%)"},
      {"measurement": "OR for rilzabrutinib vs. placebo, UAS7 = 0", "setting": "Week 6", "value": 0.923},
      {"measurement": "RRD (%) for rilzabrutinib vs. placebo, UAS7 = 0", "setting": "Week 6", "value": "−0.2", "unit": "%"},
      {"measurement": "RRD (%) for rilzabrutinib vs. placebo, UAS7 ≤6", "setting": "Week 6", "value": "−7.8", "unit": "%"},
      {"measurement": "Responder n (%), UAS7 = 0", "setting": "Week 6", "value": "1 (2.7) n (%)"},
      {"measurement": "Responder n (%), UAS7 ≤6", "setting": "Week 6", "value": "3 (8.1) n (%)"},
      {"measurement": "Imputed non-responder n (%), UAS7 = 0", "setting": "Week 7", "value": "6 (16.2) n (%)"},
      {"measurement": "Imputed non-responder n (%), UAS7 ≤6", "setting": "Week 7", "value": "6 (16.2) n (%)"},
      {"measurement": "Non-responder n (%), UAS7 = 0", "setting": "Week 7", "value": "36 (97.3) n (%)"},
      {"measurement": "Non-responder n (%), UAS7 ≤6", "setting": "Week 7", "value": "36 (97.3) n (%)"},
      {"measurement": "OR for rilzabrutinib vs. placebo, UAS7 = 0", "setting": "Week 7", "value": 1.061},
      {"measurement": "OR for rilzabrutinib vs. placebo, UAS7 ≤6", "setting": "Week 7", "value": 0.249},
      {"measurement": "RRD (%) for rilzabrutinib vs. placebo, UAS7 = 0", "setting": "Week 7", "value": 0.2, "unit": "%"},
      {"measurement": "RRD (%) for rilzabrutinib vs. placebo, UAS7 ≤6", "setting": "Week 7", "value": "−8.3", "unit": "%"},
      {"measurement": "Responder n (%), UAS7 = 0", "setting": "Week 7", "value": "1 (2.7) n (%)"},
      {"measurement": "Responder n (%), UAS7 ≤6", "setting": "Week 7", "value": "1 (2.7) n (%)"},
      {"measurement": "Imputed non-responder n (%), UAS7 = 0", "setting": "Week 8", "value": "7 (18.9) n (%)"}
    ]}
  ]
}
